Molecular target: T1, Chk1 (Homo sapiens, UniProt O14757)
T1 construct: purchased Upstate Biotechnology
T1 sequence (O14757 1-476): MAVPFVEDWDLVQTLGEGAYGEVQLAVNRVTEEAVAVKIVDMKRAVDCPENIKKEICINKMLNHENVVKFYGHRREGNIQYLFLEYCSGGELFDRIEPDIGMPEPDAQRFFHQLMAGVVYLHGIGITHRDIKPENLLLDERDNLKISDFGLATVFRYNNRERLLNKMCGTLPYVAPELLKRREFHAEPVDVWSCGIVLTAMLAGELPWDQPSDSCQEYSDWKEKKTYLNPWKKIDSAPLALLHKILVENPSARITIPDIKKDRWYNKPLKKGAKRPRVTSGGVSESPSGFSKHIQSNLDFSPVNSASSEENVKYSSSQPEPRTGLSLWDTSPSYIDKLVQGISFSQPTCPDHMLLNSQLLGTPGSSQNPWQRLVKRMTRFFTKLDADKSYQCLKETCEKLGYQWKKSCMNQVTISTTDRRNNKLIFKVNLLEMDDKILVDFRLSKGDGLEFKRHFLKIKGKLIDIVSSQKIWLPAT
Test: Chk1 kinase assay: incorporation of γ-33P ATP into immobilized myelin basic protein
Assay type: biochemical
Settings: read-out: Chk1 IC50
Summary of the method: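 Plates coated with MBP, then kinase reactions in Hepes pH 7.6 buffer with 10 mM MgCl2 and 1% DMSO were started by adding unlabeled plus γ-33P ATP (10 μM for Chk1 at 10 nM enzyme; 30 μM for Chk2 at 20 nM enzyme). After 1 h at room temperature, plates were washed and counted.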

| SMILES | IC50 |
| --- | --- |
| CNC(=O)c1nc(-c2cccc(C(=O)NCc3ccc(F)c(C)c3)c2)cnc1N [Example 299, 3-amino-6-[3-({[(4-fluoro-3-methylphenyl)methyl]amino}carbonyl)phenyl]-N-methylpyrazine-2-carboxamide] | 50 to 1000 nM |
| CNC(=O)c1nc(-c2cccc(C(=O)NCc3cccc(Cl)c3F)c2)cnc1N [Example 300, 3-amino-6-[3-({[(3-chloro-2-fluorophenyl)methyl]amino}carbonyl)phenyl]-N-methylpyrazine-2-carboxamide] | 50 to 1000 nM |
| CNC(=O)c1nc(-c2cccc(C(=O)NCc3c(Cl)ccc(C)c3F)c2)cnc1N [Example 301, 3-amino-6-[3-({[(6-chloro-2-fluoro-3-methylphenyl)methyl]amino}carbonyl)phenyl]-N-methylpyrazine-2-carboxamide] | 50 to 1000 nM |
| CNC(=O)c1nc(-c2cccc(C(=O)NCc3ccc(I)cc3)c2)cnc1N [Example 302, 3-amino-6-[3-({[(4-iodophenyl)methyl]amino}carbonyl)phenyl]-N-methylpyrazine-2-carboxamide] | < 50 nM |
| CNC(=O)c1nc(-c2cccc(C(=O)NCc3ccc(C)c(Cl)c3)c2)cnc1N [Example 303, 3-amino-6-[3-({[(3-chloro-4-methylphenyl)methyl]amino}carbonyl)phenyl]-N-methylpyrazine-2-carboxamide] | 50 to 1000 nM |
| CNC(=O)c1nc(-c2cccc(C(=O)NCc3ccc(Br)cc3)c2)cnc1N [Example 304, 3-amino-6-[3-({[(4-bromophenyl)methyl]amino}carbonyl)phenyl]-N-methylpyrazine-2-carboxamide] | 50 to 1000 nM |
| CNC(=O)c1nc(-c2cccc(C(=O)NCc3ccccc3Br)c2)cnc1N [Example 305, 3-amino-6-[3-({[(2-bromophenyl)methyl]amino}carbonyl)phenyl]-N-methylpyrazine-2-carboxamide] | 50 to 1000 nM |
| CNC(=O)c1nc(-c2cccc(CNC(=O)c3ccccc3)c2)cnc1N [Example 308, 3-amino-N-methyl-6-(3-{[(phenylcarbonyl)amino]methyl}phenyl)pyrazine-2-carboxamide] | 50 to 1000 nM |
| CNC(=O)c1nc(-c2cccc(CNC(=O)c3ccc(Cl)cc3)c2)cnc1N [Example 309, 3-amino-6-[3-({[(4-chlorophenyl)carbonyl]amino}methyl)phenyl]-N-methylpyrazine-2-carboxamide] | 50 to 1000 nM |
| CNC(=O)c1nc(-c2cccc(CNC(=O)c3cc(F)ccc3F)c2)cnc1N [Example 310, 3-amino-6-[3-({[(2,5-difluorophenyl)carbonyl]amino}methyl)phenyl]-N-methylpyrazine-2-carboxamide] | 50 to 1000 nM |
| CNC(=O)c1nc(-c2cccc(CNC(=O)c3ccc4ccccc4c3)c2)cnc1N [Example 311, 3-amino-N-methyl-6-(3-{[(naphthalen-2-ylcarbonyl)amino]methyl}phenyl)pyrazine-2-carboxamide] | 50 to 1000 nM |
| CNC(=O)c1nc(-c2cccc(CSCc3ccccc3)c2)cnc1N [Example 312, 3-amino-N-methyl-6-(3-{[(phenylmethyl)thio]methyl}phenyl)pyrazine-2-carboxamide] | 50 to 1000 nM |
| CNC(=O)c1nc(-c2cccc(CS(=O)(=O)Cc3ccccc3)c2)cnc1N [Example 313, 3-amino-N-methyl-6-(3-{[(phenylmethyl)sulfonyl]methyl}phenyl)pyrazine-2-carboxamide] | 50 to 1000 nM |
| CNC(=O)c1nc(-c2cccc(COCc3ccccc3)c2)cnc1N [Example 314, 3-amino-N-methyl-6-(3-{[(phenylmethyl)oxy]methyl}phenyl)pyrazine-2-carboxamide] | 50 to 1000 nM |
| CNC(=O)c1nc(-c2cccc(CNCc3ccccc3)c2)cnc1N [Example 315, 3-amino-N-methyl-6-(3-{[(phenylmethyl)amino]methyl}phenyl)pyrazine-2-carboxamide] | 50 to 1000 nM |
| CNC(=O)c1nc(-c2cccc(C(=O)NCc3cc(F)c(F)c(F)c3)c2)cnc1N [Example 316, 3-amino-N-methyl-6-[3-({[(3,4,5-trifluorophenyl)methyl]amino}carbonyl)phenyl]pyrazine-2-carboxamide] | 50 to 1000 nM |
| CNC(=O)c1nc(-c2cccc(NC(=O)OCC3c4ccccc4-c4ccccc43)c2)cnc1N [Example 317, 9H-fluoren-9-ylmethyl (3-{5-amino-6-[(methylamino)carbonyl]pyrazin-2-yl}phenyl)carbamate] | 1000 to 10000 nM |
| CNC(=O)c1nc(-c2cccc(NC(=O)OCc3ccccc3)c2)cnc1N [Example 318, phenylmethyl (3-{5-amino-6-[(methylamino)carbonyl]pyrazin-2-yl}phenyl)carbamate] | 50 to 1000 nM |

| SMILES | IC50 |
| --- | --- |
| CCOC(=O)Nc1cccc(-c2cnc(N)c(C(=O)NC)n2)c1 [Example 319, ethyl (3-{5-amino-6-[(methylamino)carbonyl]pyrazin-2-yl}phenyl)carbamate] | 50 to 1000 nM |
| CNC(=O)c1nc(-c2cccc(CNC(=O)c3ccc(Cl)c(Cl)c3)c2)cnc1N [Example 320, 3-amino-6-[3-({[(3,4-dichlorophenyl)carbonyl]amino}methyl)phenyl]-N-methylpyrazine-2-carboxamide] | 50 to 1000 nM |
| CNC(=O)c1nc(-c2cccc(NC(=O)OC(C)(C)C)c2)cnc1N [Example 321, 1,1-dimethylethyl (3-{5-amino-6-[(methylamino)carbonyl]pyrazin-2-yl}phenyl)carbamate] | 1000 to 10000 nM |
| CNC(=O)c1nc(-c2cccc(NC(=O)O[C@@H]3C[C@H](C)CC[C@H]3C(C)C)c2)cnc1N [Example 322, (1R,2S,5R)-5-methyl-2-(1-methylethyl)cyclohexyl (3-{5-amino-6-[(methylamino)carbonyl]pyrazin-2-yl}phenyl)carbamate] | ≥ 10000 nM |
| CNC(=O)c1nc(-c2cccc(C(=O)NCc3ccc(O)cc3)c2)cnc1N [Example 323, 3-amino-6-[3-({[(4-hydroxyphenyl)methyl]amino}carbonyl)phenyl]-N-methylpyrazine-2-carboxamide] | 50 to 1000 nM |
| CNC(=O)c1nc(-c2cccc(C(=O)NCc3ccc(OCCN4CCOCC4)cc3)c2)cnc1N [Example 324, 3-amino-N-methyl-6-(3-{[({4-[(2-morpholin-4-ylethyl)oxy]phenyl}methyl)amino]carbonyl}phenyl)pyrazine-2-carboxamide] | 50 to 1000 nM |
| CNC(=O)c1nc(-c2cccc(C(=O)NCc3ccccc3OC)c2)cnc1N [Example 325, 3-amino-N-methyl-6-{3-[({[2-(methyloxy)phenyl]methyl}amino)carbonyl]phenyl}pyrazine-2-carboxamide] | 50 to 1000 nM |
| CNC(=O)c1nc(-c2cccc(C(=O)NCc3cccc(O)c3)c2)cnc1N [Example 326, 3-amino-6-[3-({[(3-hydroxyphenyl)methyl]amino}carbonyl)phenyl]-N-methylpyrazine-2-carboxamide] | 50 to 1000 nM |
| CNC(=O)c1nc(-c2cccc(C(=O)NCc3ccccc3O)c2)cnc1N [Example 327, 3-amino-6-[3-({[(2-hydroxyphenyl)methyl]amino}carbonyl)phenyl]-N-methylpyrazine-2-carboxamide] | 50 to 1000 nM |
| CNC(=O)c1nc(-c2cccc(C(=O)NNc3ccccc3)c2)cnc1N [Example 328, 3-amino-N-methyl-6-{3-[(2-phenylhydrazino)carbonyl]phenyl}pyrazine-2-carboxamide] | < 50 nM |
| CNC(=O)c1nc(-c2cccc(CNC(=O)Cc3ccccc3)c2)cnc1N [Example 330, 3-amino-N-methyl-6-(3-{[(phenylacetyl)amino]methyl}phenyl)pyrazine-2-carboxamide] | 50 to 1000 nM |
| CNC(=O)c1nc(-c2cccc(CNC(=O)Cc3ccc(Cl)cc3)c2)cnc1N [Example 331, 3-amino-6-[3-({[(4-chlorophenyl)acetyl]amino}methyl)phenyl]-N-methylpyrazine-2-carboxamide] | 50 to 1000 nM |
| CNC(=O)c1nc(-c2cccc(CNC(=O)c3ccc(-c4ccccc4)cc3)c2)cnc1N [Example 332, 3-amino-6-(3-{[(biphenyl-4-ylcarbonyl)amino]methyl}phenyl)-N-methylpyrazine-2-carboxamide] | < 50 nM |
| CNC(=O)c1nc(-c2cccc(CNC(=O)c3cc(C(F)(F)F)ccc3Cl)c2)cnc1N [Example 333, 3-amino-6-{3-[({[2-chloro-5-(trifluoromethyl)phenyl]carbonyl}amino)methyl]phenyl}-N-methylpyrazine-2-carboxamide] | 50 to 1000 nM |
| CNC(=O)c1nc(-c2cccc(CNC(=O)c3cc4ccccc4[nH]3)c2)cnc1N [Example 334, N-[(3-{5-amino-6-[(methylamino)carbonyl]pyrazin-2-yl}phenyl)methyl]-1H-indole-2-carboxamide] | 50 to 1000 nM |
| CNC(=O)c1nc(-c2cccc(CNC(=O)c3ncccc3O)c2)cnc1N [Example 335, 3-amino-6-[3-({[(3-hydroxypyridin-2-yl)carbonyl]amino}methyl)phenyl]-N-methylpyrazine-2-carboxamide] | 50 to 1000 nM |
| CNC(=O)c1nc(-c2cccc(CNC(=O)Cc3c[nH]c4ccccc34)c2)cnc1N [Example 336, 3-amino-6-(3-{[(1H-indol-3-ylacetyl)amino]methyl}phenyl)-N-methylpyrazine-2-carboxamide] | 50 to 1000 nM |
